Results on 3 molecules are retold here after US4029692A, “Steroid carboxylic acids and derivatives” (priority 1975, dated 1977).

As usually defined, the ED50 is the dose at which the effect has come halfway, by size or by number of responders.

The test system of experiment [1] is experimentally hyperemiated skin. In words: Vasoconstriction test. The format is in vivo. The settings on record: concentration 0.1%, visual estimate, hyperemiated non-treated skin = 0, non-hyperemiated skin = 100; for Vasoconstriction, colour value, 4 hrs.: after 4 hours; for Vasoconstriction, colour value, 8 hrs.: after 8 hours. As for the experimental part:
J. Derm. 69, 11 (1957)]. In this test, the degree of the vasoconstriction in relation to the time was estimated visually (after 4 and 8 hours). The colour value of the hyperemiated non-treated skin was rated as 0 and the colour value of the non-hyperemiated skin was rated as 100. The D-homosteroids were used in concentration of 0.1%.

The test system of experiment [2] is granulomas (felt pellets implanted under the skin). Nature of the experiment: Felt pellet test (granulation weight reduction). Format: in vivo, rats (female). The settings on record: Rattus norvegicus, 120 h; 40% reduction of the granulation weight; oral on 4 successive days. As for the experimental part: (§1) 2 felt pellets were implanted under the skin (scapula region) in female rats (90-110 g) under ether narcosis. The D-homosteroids were administered orally on 4 successive days commencing on the day of the implantation. On the fifth day the rats were killed, the granulomas which formed were removed, dried and weighed. The ED40, namely that dosage which gave a 40% reduction of the granulation weight, was determined. The thymus and kidney fresh weight as well as the weight-change were also determined.

Experiment [3] has as its system thymus weight. Nature of the experiment: Thymolysis test (thymus weight reduction). The format is in vivo, rats (female). As to conditions: Rattus norvegicus, 120 h; 50% reduction in the thymus weight; rats of the Felt pellet test; oral on 4 successive days. As for the experimental part: as §1
Rats employed in the Felt pellet test were used for this test. The ED50, namely that dosage which gave a 50% reduction in the thymus weight, was determined.

Experiment [4] relates to hind paw oedema (Mycobacterium butyricum). In words: Adjuvant-paw oedema test. The format is in vivo, Lewis rats (female). As to conditions: in Rattus norvegicus, 50% oedema inhibition, given immediately before and 24 hours after, paw diameter at 48 hours. Here is the method:
This test was carried out on female Lewis rats weighing 130-150 g. The oedema was caused by the subplantar injection of Mycobacterium butyricum in the right hind paw (0.5 mg of M. butyricum/0.1 ml of liquid paraffin). The D-homosteroids (suspended in 0.5% tragacanth/0.9% sodium chloride) were administered immediately before and 24 hours after the establishment of the oedema. The paw diameter was measured before and 48 hours after the establishment of the oedema. The ED50, namely the dosage which brings about a 50% oedema inhibition, was determined by means of a graph.

`COC(=O)[C@@]1(OC(C)=O)CCC[C@H]2[C@@H]3CCC4=CC(=O)C=C[C@]4(C)[C@@]3(F)[C@@H](O)C[C@@]21C` [17aα-acetoxy-9α-fluoro-11β-hydroxy-3-oxo-D-homoandrosta-1,4-diene-17aβ-carboxylic acid methyl ester]: the “Vasoconstriction, colour value, 4 hrs.” value in experiment [1] was 63. Moreover, in experiment [1], the “Vasoconstriction, colour value, 8 hrs.” value was 77. In addition, the ED40 in experiment [2] amounted to 9 mg/kg. Further, the values for the ED50 in experiment [3] and in experiment [4] were 0.9 mg/kg and 1.3 mg/kg, respectively.

Consider `COC(=O)[C@@]1(OC(C)=O)CCC[C@H]2[C@@H]3CCC4=CC(=O)CC[C@]4(C)[C@H]3[C@@H](O)C[C@@]21C` [17aα-acetoxy-11β-hydroxy-3-oxo-D-homoandrost-4-ene-17aβ-carboxylic acid methyl ester], for which, in experiment [1], the “Vasoconstriction, colour value, 4 hrs.” value was 72 and the “Vasoconstriction, colour value, 8 hrs.” value is recorded as 70.

Take `COC(=O)[C@@]1(OC(C)=O)CCC[C@H]2[C@@H]3CCC4=CC(=O)C=C[C@]4(C)[C@H]3[C@@H](O)C[C@@]21C` [17aα-acetoxy-11β-hydroxy-3-oxo-D-homoandrosta-1,4-diene-17aβ-carboxylic acid methyl ester]: in experiment [1], the “Vasoconstriction, colour value, 4 hrs.” value is given as 70 and the “Vasoconstriction, colour value, 8 hrs.” value is 77. This molecule also registered an ED40 in experiment [2] of 3 mg/kg. In experiment [3], this molecule displayed an ED50 of 0.65 mg/kg. Also, the median effective dose (ED50) in experiment [4] was 3.5 mg/kg.
